The text below walks through data of patent US10624947B2, “Bactericidal peptides and uses thereof” (INDIANA UNIVERSITY RESEARCH AND TECHNOLOGY CORPORATION, priority 2016, dated 2020).

The subject of series [1] is human red blood cells (hRBCs). Briefly: Hemolytic activity. It is filed as cell-based.
Description: The amount of hemoglobin released was measured by the absorbance at 435 nm after a 60-minute incubation with the antimicrobial peptide. The percentage of hRBC lysis was normalized to the amount hemoglobin released by the suspension of the hRBCs in deionized water. The background amount of hRBC lysis was determined by adding phosphate buffered saline (PBS) at the same volume as 8 μM of the peptide to the hRBC for 1 h.
The hemolytic activities of peptides were determined using human red blood cells (hRBCs) (Innovative Research, Inc., cat. # IPLA-WB3-18103). The hRBCs were washed three times with PBS and then resuspended in PBS. The hRBCs solution was mixed with serial dilutions of the peptides in PBS buffer. The reaction mixtures were incubated for 45 min at 37° C. After centrifugation at 94×g for 10 min, the intact hRBCs were pelleted and the hemoglobin released from hRBCs was monitored by measuring the absorbance of the supernatant at 415 nm. The background level of absorbance was measured in sampled incubated with only PBS buffer. 100% hemolysis was determined in sampled incubated with water. The percentage of hemolysis was calculated according to the following equation. Percentage of hemolysis=[(Asample−Ablank)/Awater]*100%
Mammalian cells are thought to be less susceptible to cathelicidin peptides in part because the composition of their membrane will be less likely to interact with the peptides. To address this directly, human red blood cells (hRBCs) were tested for lysis after a 45-minute incubation with the peptides. The total lysis of hRBCs was determined by adding water to the cells. The amount of lysis during handling was determined by the addition of phosphate buffered saline at the same volume as that of the peptides.
The test system of series [2] is Cultured human cells. Briefly: MTT cytotoxicity assay. Format: cell-based. (In general: Tetrazolium assays rely on reduction of a dye to a coloured formazan, in cell work by metabolically active cells.)
For series [3], the system named is Escherichia coli.
Description: (§1) Antimicrobial activity was determined using the broth microdilution method based on the general recommendation of the Clinical and Laboratory Standards Institute. Bacteria were grown in Mueller-Hinton broth at 37° C. until OD625 reached 0.06, and then bacteria were further diluted into 1:20 for later use. […] 10 microliter (μL) of diluted bacteria was mixed with 90 μL of peptides at varying concentrations followed by incubation at 37° C. for 16-18 hours. The MIC is the lowest peptide concentration at which visible growth was inhibited. The MIC value was determined at least twice in independent experiments and typically in 3-4 assays.
Series [4] relates to Klebsiella pneumoniae. To be noted: for MIC: Table 5.
Description: as §1
In series [5] the test system is Klebsiella pneumoniae. In words: microbe, parasite or virus in culture.
Description: as §1
The subject of series [6] is Enterobacter cloacae.
Description: as §1
Series [7] concerns Serratia marcescens.
Description: as §1
The test system of series [8] is Pseudomonas aeruginosa. It is filed as cell-based.
Description: as §1
The mark [9] stands for this setting: Table 8, clinical isolate 88 (NDM1+).
[10] abbreviates: Table 8, clinical isolate 262 (NDM1+).
Where [11] appears, read: Table 11, clinical isolate 88 (NDM1+).
[12] abbreviates: Table 11, clinical isolate 262 (NDM1+).
[13] abbreviates: Table 11, clinical isolate 110113.

Converted amounts (≈) assume the structure as drawn. Like-named read-outs stand apart in the source and are kept apart here. Ends that are not written are not given here.

Take “GRFKRFRKKFKKLFKKLSPVIPLLHLG [BMAP-27, reference compound]”: the RBC lysis entry in series [1] is given as “decreased RBC lysis compared to the control H2O”. Besides, in series [2], the “Cytotoxicity, MTT assay” value was “no increased cytotoxicity compared to the controls”. In series [3], this compound showed a Minimal inhibitory concentration of 8 µg/mL.

Regarding GRAKRLRKKLKKLAKKLSPVIPLLHLG [BMAP-27C], the RBC lysis result in series [1] is recorded as “decreased RBC lysis compared to the control H2O”. Besides, the “Cytotoxicity, MTT assay” value in series [2] was “no increased cytotoxicity compared to the controls”. The Minimal inhibitory concentration in series [3] worked out at 32 µg/mL; in series [3] (E. coli ATCC 35218) it was 4 µg/mL.

As for Colistin sulfate [reference compound], the MIC in series [3] (Table 5, Escherichia coli ATCC25922, antibiotic resistance none) is 1 µM; in series [4] (Klebsiella pneumonia 27, Carbapenem resistant), >32 µM; in series [4] (Klebsiella pneumonia 49, Carbapenem resistant) it was 4 µM; in series [4] (Klebsiella pneumonia 83, Carbapenem resistant), 2 µM; in series [4] (Klebsiella pneumonia 84, Carbapenem resistant), 2 µM; in series [4] (Klebsiella pneumonia 88, Carbapenem resistant (NDM1+)), 16 µM. In addition, the MIC in series [4] (Klebsiella pneumonia 262, Carbapenem resistant (NDM1+)) amounted to 16 µM.

In the case of `C[C@@H](O)[C@H]1C(=O)N2C(C(=O)O)=C(SCCN=CN)C[C@H]12` [Imipenem], the MIC was 16 µg/mL (≈ 53.4 µM) in series [5] (setting [9]); > 64 µg/mL in series [5] (Table 8, clinical isolate 92); 16 µg/mL (≈ 53.4 µM) in series [5] (Table 8, clinical isolate 109); 16 µg/mL (≈ 53.4 µM) in series [5] (Table 8, clinical isolate 113); 8 µg/mL (≈ 26.7 µM) in series [5] (Table 8, clinical isolate 116); 32 µg/mL (≈ 107 µM) in series [5] (Table 8, clinical isolate 118). Also, the MIC is 8 µg/mL (≈ 26.7 µM) in series [5] (Table 8, clinical isolate 136); ≥ 16 µg/mL in series [5] (Table 8, clinical isolate 256); > 16 µg/mL in series [5] (setting [10]); 48 µg/mL (≈ 160 µM) in series [5] (Table 8, clinical isolate 265); ≥ 16 µg/mL in series [5] (Table 8, clinical isolate 280); 4 µg/mL (≈ 13.4 µM) in series [5] (Table 8, clinical isolate 281). Further, the MIC in series [5] (Table 8, clinical isolate 284) was 8 µg/mL (≈ 26.7 µM); in series [5] (Table 8, clinical isolate 286), ≥ 16 µg/mL; in series [5] (Table 8, clinical isolate 330), 4 µg/mL (≈ 13.4 µM); in series [5] (Table 8, clinical isolate 361) it was > 16 µg/mL; in series [5] (setting [11]) it was 16 µg/mL (≈ 53.4 µM); in series [5] (Table 11, clinical isolate 92), > 64 µg/mL. Besides, the MIC in series [5] (Table 11, clinical isolate 116) was 8 µg/mL (≈ 26.7 µM); in series [5] (Table 11, clinical isolate 118) it was 32 µg/mL (≈ 107 µM); in series [5] (Table 11, clinical isolate 136), 8 µg/mL (≈ 26.7 µM); in series [5] (Table 11, clinical isolate 256), ≥ 16 µg/mL; in series [5] (setting [12]) it was > 16 µg/mL; in series [5] (Table 11, clinical isolate 265) it was 48 µg/mL (≈ 160 µM). Further, the MIC in series [5] (Table 11, clinical isolate 280) is ≥ 16 µg/mL; in series [5] (Table 11, clinical isolate 281), 4 µg/mL (≈ 13.4 µM); in series [5] (Table 11, clinical isolate 284), 8 µg/mL (≈ 26.7 µM); in series [5] (Table 11, clinical isolate 286), ≥ 16 µg/mL; in series [5] (Table 11, clinical isolate 330), 4 µg/mL (≈ 13.4 µM); in series [5] (Table 11, clinical isolate 361), > 16 µg/mL. Also, the MIC was > 16 µg/mL in series [5] (Table 11, clinical isolate 10916) and 16 µg/mL (≈ 53.4 µM) in series [5] (setting [13]).

`CC[C@H](C)[C@H](NC(=O)[C@H](CCCCN)NC(=O)[C@H](CCC(=O)O)NC(=O)[C@H](CCCCN)NC(=O)[C@H](CO)NC(=O)[C@H](CCCCN)NC(=O)[C@H](CCCNC(=N)N)NC(=O)[C@H](Cc1ccccc1)NC(=O)[C@H](Cc1ccccc1)NC(=O)[C@H](CC(=O)O)NC(=O)CNC(=O)[C@H](CC(C)C)NC(=O)[C@@H](N)CC(C)C)C(=O)NCC(=O)N[C@@H](CCCCN)C(=O)N[C@@H](CCC(=O)O)C(=O)N[C@@H](Cc1ccccc1)C(=O)N[C@@H](CCCCN)C(=O)N[C@@H](CCCNC(=N)N)C(=O)N[C@H](C(=O)N[C@H](C(=O)N[C@@H](CCC(N)=O)C(=O)N[C@@H](CCCNC(=N)N)C(=O)N[C@H](C(=O)N[C@@H](CCCCN)C(=O)N[C@@H](CC(=O)O)C(=O)N[C@@H](Cc1ccccc1)C(=O)N[C@@H](CC(C)C)C(=O)N[C@@H](CCCNC(=N)N)C(=O)N[C@@H](CC(N)=O)C(=O)N[C@@H](CC(C)C)C(=O)N[C@H](C(=O)N1CCC[C@H]1C(=O)N[C@@H](CCCNC(=N)N)C(=O)N[C@H](C(=O)N[C@@H](CCC(=O)O)C(=O)N[C@@H](CO)C(=O)O)[C@@H](C)O)C(C)C)[C@@H](C)CC)C(C)C)[C@@H](C)CC` [LL-37, reference compound]: the Minimal inhibitory concentration in series [6] (E. cloacae 4092) is >32 µg/mL; in series [6] (Table 10, Enterobacter cloacae OC4080), 32 µM; in series [6] (Table 10, Enterobacter cloacae OC4092) it was >32 µM; in series [7] (S. marcescens 4101), >32 µg/mL; in series [7] (S. marcescens 4104), >32 µg/mL; in series [7] (S. marcescens 7553), >32 µg/mL. Also, the Minimal inhibitory concentration in series [7] (Table 10, Serratia marcescens 4075A) is >32 µM; in series [7] (Table 10, Serratia marcescens 4101) it was >32 µM; in series [7] (Table 10, Serratia marcescens 4104), >32 µM; in series [3] (E. coli 4075) it was >32 µg/mL; in series [3] (E. coli J53 AzideR), >32 µg/mL; in series [3] (E. coli MC4100), >32 µg/mL. The Minimal inhibitory concentration in series [3] (Table 10, Escherichia coli ATCC 25922) is 32 µM; in series [3] (Table 10, Escherichia coli ATCC 35218), 32 µM; in series [3] (Table 10, Escherichia coli IU342), 32 µM; in series [3] (Table 10, Escherichia coli J53 AzideR), >32 µM; in series [3] (Table 10, Escherichia coli MC4100a), >32 µM; in series [3] (Table 10, Escherichia coli OC4075) it was >32 µM. The Minimal inhibitory concentration is >32 µM in series [3] (Table 10, Escherichia coli UT189); >32 µg/mL in series [4] (K. pneumoniae 4110); >32 µg/mL in series [4] (K. pneumoniae ATCC 700603); >32 µg/mL in series [4] (K. pneumoniae C2); >32 µg/mL in series [4] (K. pneumoniae OC8893); >32 µM in series [4] (Table 10, Klebsiella pneumonia ATCC 700603). Also, the Minimal inhibitory concentration in series [4] (Table 10, Klebsiella pneumonia C2) was >32 µM; in series [4] (Table 10, Klebsiella pneumonia OC4110) it was >32 µM; in series [4] (Table 10, Klebsiella pneumonia OC8893), >32 µM; in series [8] (P. aeruginosa ATCC 27853), >32 µg/mL; in series [8] (Table 10, Pseudomonas aeruginosa ATCC 27853) it was >32 µM; in series [8] (Table 10, Pseudomonas aeruginosa OC4083) it was >32 µM. Further, the Minimal inhibitory concentration in series [8] (Table 10, Pseudomonas aeruginosa PAO1) amounted to 32 µM; in series [8] (Table 10, Pseudomonas aeruginosa PAO1 oprD) it was 32 µM. The “Hemoglobin release from hRBCs” value in series [1] (2 micromolar, 45-minute incubation (FIG. 17)) is listed as “a low abundance of hemoglobin outside of the cells was detected”. For the same compound, the hRBC lysis entry in series [1] (2 to 8 μM (FIG. 15)) is reported as “lysed hRBC when present at 4 or 8 μM”. In addition, the “hRBC lysis with increasing concentration” value in series [1] (LL-37 beyond 10 micromolar, B22a up to 60 micromolar (FIG. 18)) is “significantly higher hRBC lysis”. Further, the “Cytotoxicity, MTT assay” value in series [2] (cultured human cells, compared to controls) is “no increased cytotoxicity compared to the controls”.

As for `C[C@@H](O)[C@H]1C(=O)N2C(C(=O)O)=C(S[C@@H]3CN[C@H](C(=O)N(C)C)C3)[C@H](C)[C@H]12` [Meropenem], the MIC is > 16 µg/mL in series [5] (setting [9]); > 16 µg/mL in series [5] (Table 8, clinical isolate 92); > 16 µg/mL in series [5] (Table 8, clinical isolate 109); > 16 µg/mL in series [5] (Table 8, clinical isolate 113); > 16 µg/mL in series [5] (Table 8, clinical isolate 116); > 16 µg/mL in series [5] (Table 8, clinical isolate 118). Further, the MIC is > 16 µg/mL in series [5] (Table 8, clinical isolate 136); > 32 µg/mL in series [5] (Table 8, clinical isolate 170); 4 µg/mL (≈ 10.4 µM) in series [5] (Table 8, clinical isolate 256); > 6 µg/mL in series [5] (setting [10]); > 64 µg/mL in series [5] (Table 8, clinical isolate 265); > 64 µg/mL in series [5] (Table 8, clinical isolate 280). For the same compound, the MIC is > 64 µg/mL in series [5] (Table 8, clinical isolate 281); > 64 µg/mL in series [5] (Table 8, clinical isolate 284); > 64 µg/mL in series [5] (Table 8, clinical isolate 286); > 16 µg/mL in series [5] (Table 8, clinical isolate 328); > 16 µg/mL in series [5] (Table 8, clinical isolate 330); > 16 µg/mL in series [5] (Table 8, clinical isolate 361). Further, the MIC is > 16 µg/mL in series [5] (Table 8, clinical isolate 365); > 16 µg/mL in series [5] (Table 8, clinical isolate 399); > 16 µg/mL in series [5] (setting [11]); > 16 µg/mL in series [5] (Table 11, clinical isolate 92); > 16 µg/mL in series [5] (Table 11, clinical isolate 116); > 16 µg/mL in series [5] (Table 11, clinical isolate 118). In addition, the MIC is > 16 µg/mL in series [5] (Table 11, clinical isolate 136); > 32 µg/mL in series [5] (Table 11, clinical isolate 170); 4 µg/mL (≈ 10.4 µM) in series [5] (Table 11, clinical isolate 256); ≥ 64 µg/mL in series [5] (setting [12]); ≥ 64 µg/mL in series [5] (Table 11, clinical isolate 265); ≥ 64 µg/mL in series [5] (Table 11, clinical isolate 280). Also, the MIC is > 64 µg/mL in series [5] (Table 11, clinical isolate 281); ≥ 64 µg/mL in series [5] (Table 11, clinical isolate 284); ≥ 64 µg/mL in series [5] (Table 11, clinical isolate 286); ≥ 16 µg/mL in series [5] (Table 11, clinical isolate 328); ≥ 16 µg/mL in series [5] (Table 11, clinical isolate 330); ≥ 16 µg/mL in series [5] (Table 11, clinical isolate 361). Moreover, the MIC in series [5] (Table 11, clinical isolate 365) is ≥ 16 µg/mL; in series [5] (Table 11, clinical isolate 399), ≥ 16 µg/mL; in series [5] (setting [13]), > 16 µg/mL.

As to GRFKRLRKKFKKLFKKLSPVIPLLHLG [BMAP-27A], the RBC lysis result in series [1] is “decreased RBC lysis compared to the control H2O”. The “Cytotoxicity, MTT assay” value in series [2] is on record as “no increased cytotoxicity compared to the controls”. In addition, the Minimal inhibitory concentration stood at 8 µg/mL in series [3], 2 µg/mL in series [3] (E. coli ATCC 25922), 2 µg/mL in series [3] (E. coli ATCC 35218) and 2 µg/mL in series [3] (E. coli IU0342).
